In US20030054411A1, “GPR motifs and uses thereof” (priority 2001, published 2003):

B1: AGS3: Activator of G-protein Signalling 3; bioactive 74 amino acid fragment isolated in yeast screen, tested as GST fusion (protein)
chain: MLIKYQSSRIDDQRCPPPDVLPRGPTMPDEDFFSLIQRVQAKRMDEQRVDLAGSPDQEASGLPDPRQQCPPGAS
modifications: left off: a dimerising Fc or GST

Assays:
[1] = tested on: pheromone response pathway; assay: Yeast expression cloning system, growth assay; format: cell-based, Saccharomyces cerevisiae; details: for activity in the presence of Giα2 G204A mutant or RGS4: G204A Giα2 strain or RGS4 overexpression; for growth in yeast expression cloning system: Giα2 yeast strain, selective medium; for function in null Ste5 genetic background: yeast strain lacking Ste5
Source text: (A) Three cDNA clones (#34, #37 and #53) were isolated from a screen of 1.1×10^6 yeast transformants based upon their ability to promote growth in a galactose-dependent manner in the yeast expression cloning system (5). B) Analysis of the cDNA clones in spot growth assays using yeast strains lacking STE20, STE5 or STE4. Control (Non-induced/no selection)—glucose media lacking uracil and tryptophan (UT). Non-induced/selection—glucose media lacking uracil/tryptophan/histidine (UTH) and containing the histidine analog aminotriazole (AT) at 1 mM. Induced/selection—galactose media lacking UTH and containing 1 mM AT. WT—wild type strain CY1316/1183. cDNA #34 was active in the absence of a functional STE5 and thus was not evaluated (black circles in key) in yeast strains lacking STE4 or STE20. For spot growth assays, ˜2,000 cells suspended in water were spotted on appropriate medium and the plates were incubated at 30° for 2 days prior to photography. Experiments in (A, B) were repeated three times with similar results.
(A) Bioactivity of cDNA #37 and 53 in yeast strains expressing different Gα subunits. The Gpa1, Giα2Gpa1(1-41), Giα3Gpa1(1-41) and Gα16Gpa1(1-41) yeast strains expressed similar amounts of G-protein as determined by immunoblotting with Gpa1-specific antisera. Each series of experiments include data obtained in the absence of Gα to indicate the signal obtained when the action of Gβγ is not limited by reformation of heterotrimer. Data are presented as the mean±S.E.M of three experiments with duplicate determinations. (B) Interaction of AGS2 and AGS3 with G-proteins. AGS2 and the bioactive AGS3 peptide (74 amino acids) beginning at the first in frame methionine were generated as GST-fusion proteins in bacteria and purified using a glutathione affinity matrix. AGS2 and AGS3 GST fusion proteins were incubated with G-protein subunits (Gα=60-80 nM, Gβγ=40 nM, fusion protein=˜300 nM, total volume=250 ul) for 12 hrs at 4° C. GDP=10 uM. GTPγS=10 uM plus 5 mM MgCl2. Proteins were then adsorbed to glutathione matrix and retained G-protein subunits identified by immunoblotting following gel electrophoresis. Giα2 was generated in Sf9 cells as an amino terminal his6-tagged protein and was detected on membrane transfers using anti-Xpress antisera (Invitrogen). Bovine brain Gβγ was detected on membrane transfers with Gβ antisera. Input refers to 20 ul of the incubation mixture. The results presented are representative of four separate experiments. […] C) Effect of G204A Giα2 substitution and RGS4 on the functionality of AGS proteins. The G204A Giα2 yeast strain and the system used for over expression of RGS4 are described in detail in reference 5. Protein expression was confirmed by immunoblotting. AGS 1 was discovered in a similar screen using a human liver cDNA library (5, 7). WT—wild type strain CY1316/1183 containing Giα2 as described for the original yeast screen. RGS4 was overexpressed in the CY1316/1183 yeast strain. Similar results were obtained in three experiments.
Generation and screening of cDNA libraries. The NG108-15 cell line was propagated as previously described (4). mRNA was prepared from twenty 100 mm confluent plates of cells and used to generate a cDNA library in the yeast expression vector pYES2. The library was constructed by standard procedures using reagents from Stratagene. Analysis of individual transformants indicated cDNA inserts ranging from 400 to 3000 nt with ˜70-80% of the transformants containing cDNA inserts. The primary transformants were then amplified by solid phase agarose growth for 48 hr and plasmid DNA isolated by column fractionation (Qiagen). The NG108-15 cDNA library was then screened for activators of the pheromone response pathway as described (5). We used a his3 far1 yeast strain containing a genomic integration of the FUS1p-HIS3 reporter construct and lacking both the native pheromone response receptor Ste3 and Gpa1 Gα subunit. […]

[2] = tested on: pheromone response pathway; assay: β-galactosidase reporter assays in yeast strains expressing different Gα subunits; format: cell-based, Saccharomyces cerevisiae; details: Gpa1, Gsα, Giα2, Giα3, Gα16 backgrounds
Source text: (A) Bioactivity of cDNA #37 and 53 in yeast strains expressing different Gα subunits. The Gpa1, Giα2Gpa1(1-41), Giα3Gpa1(1-41) and Gα16Gpa1(1-41) yeast strains expressed similar amounts of G-protein as determined by immunoblotting with Gpa1-specific antisera. Each series of experiments include data obtained in the absence of Gα to indicate the signal obtained when the action of Gβγ is not limited by reformation of heterotrimer. Data are presented as the mean±S.E.M of three experiments with duplicate determinations. (B) Interaction of AGS2 and AGS3 with G-proteins. AGS2 and the bioactive AGS3 peptide (74 amino acids) beginning at the first in frame methionine were generated as GST-fusion proteins in bacteria and purified using a glutathione affinity matrix. AGS2 and AGS3 GST fusion proteins were incubated with G-protein subunits (Gα=60-80 nM, Gβγ=40 nM, fusion protein=˜300 nM, total volume=250 ul) for 12 hrs at 4° C. GDP=10 uM. […] Giα2 was generated in Sf9 cells as an amino terminal his6-tagged protein and was detected on membrane transfers using anti-Xpress antisera (Invitrogen). Bovine brain Gβγ was detected on membrane transfers with Gβ antisera. […]
Generation and screening of cDNA libraries. […] The cDNAs conferring such a response were considered positive and were further evaluated by epistasis experiments in different yeast strains, nucleotide sequencing and RNA blot analysis. […]

Molecule	activity in the presence of Giα2 G204A mutant or RGS4 [1]	growth in yeast expression cloning system [1]	function in null Ste5 genetic background [1]	activity in yeast strains lacking Ste20 or Ste4 [1]	activity in yeast strains expressing different Gα subunits [2]
AGS2: Activator of G-protein Signalling 2, protein identical to mouse Tctex1, isolated from NG108-15 cDNA library	still active	promoted growth in a galactose-dependent manner	did not function	inactive	active in each of the genetic backgrounds except Gpa1
B1	still active	promoted growth in a galactose-dependent manner	did not function	inactive	only active in the Giα2 and Giα3 genetic backgrounds
